28 compounds from patent US10806726B2, “Methods of using indazole-3-carb oxamides and their use as Wnt/B-catenin signaling pathway inhibitors” (Samumed, LLC, priority 2016, dated 2020) can be followed below.

The subject of assay [1] is Wnt-responsive promoter driving firefly luciferase in SW480 cells. The experiment in a line: Wnt reporter (SP5 promoter-luciferase) screening assay in SW480 cells. The class given is cell-based. Conditions: Homo sapiens, 24-40 h, top concentration ten micromolar. The source says: Another screening assay for Wnt activity is described as follows. Reporter cell lines can be generated by stably transducing cells of cancer cell lines (e.g., colon cancer) with a lentiviral construct that include a Wnt-responsive promoter driving expression of the firefly luciferase gene.
Lentiviral constructs can be made in which the SP5 promoter, a promoter having eight TCF/LEF binding sites derived from the SP5 promoter, is linked upstream of the firefly luciferase gene. The lentiviral constructs can also include a hygromycin resistance gene as a selectable marker. The SP5 promoter construct can be used to transduce SW480 cells, a colon cancer cell line having a mutated APC gene that generates a truncated APC protein, leading to de-regulated accumulation of β-catenin.
Cultured SW480 cells bearing a reporter construct can be distributed at approximately 10,000 cells per well into 96 well or 384 well plates. Compounds from a small molecule compound library can then be added to the wells in half-log dilutions using a ten micromolar top concentration. A series of control wells for each cell type receive only buffer and compound solvent. Twenty-four to forty hours after the addition of compound, reporter activity for luciferase can be assayed, for example, by addition of the BrightGlo luminescence reagent (Promega) and the Victor3 plate reader (Perkin Elmer). Readings can be normalized to DMSO only treated cells, and normalized activities can then be used in the EC50 calculations.

The subject of assay [2] is primary human mesenchymal stem cells (hMSCs). The experiment in a line: Tenocyte differentiation screening in hMSCs (SCXA-positive cells, 4 days). It is filed as cell-based. Conditions: 96 h, fold change over DMSO. The text has this:
Representative compounds were screened using primary human mesenchymal stem cells (hMSCs) to determine their ability to induce tenocyte differentiation (process by which tendon is developed).
Primary human mesenchymal stem cells (hMSCs) were purchased from Lonza (Walkersville, Md.) and expanded in Mesenchymal Stem Cell Growth Media (Lonza). Cells between passage 3 and 6 were used for the experiments.
Cells were fixed using 4% formaldehyde (Electron Microscopy Sciences), and stained with anti-Sclerasis (anti-SCXA) antibodies (Abgent, San Diego, Calif.) [Webb S., et. al., Retinoic acid receptor signaling preserves tendon stem cell characteristics and prevents spontaneous differentiation in vitro, Stem Cell Research & Therapy 2016, 7:45] overnight at 4° C. […] Number of cells positive for SCXA in each well was quantified using the Celllnsight CX5. Data was normalized to the average of 12 DMSO treated wells on the same plate using Dotmatics Studies module. The normalized averages (fold change over DMSO) of 3 replicate wells for each compound concentration were calculated. Due to solubility limitations of some of the compounds, values for higher doses were manually corrected and curve fitting and EC50 determinations were performed using Dotmatics Studies.
EC50 for each compound is reported.

With `CN(C)C(=O)Nc1cncc(-c2ccc3[nH]nc(C(=O)Nc4cccnc4)c3c2)c1` [compound 1, 5-(5-(3,3-dimethylureido)pyridin-3-yl)-N-(pyridin-3-yl)-1H-indazole-3-carboxamide], the results for the EC50 in assay [1] and in assay [2] were 0.175 µM and greater than 100 µM, respectively.
Consider `O=C(Nc1ccc(C(F)(F)F)nc1)c1n[nH]c2ccc(-c3cncc(F)c3)cc12` [compound 2, 5-(5-fluoropyridin-3-yl)-N-(6-(trifluoromethyl)pyridin-3-yl)-1H-indazole-3-carboxamide], for which the EC50 was 5 µM in assay [1] and greater than 100 µM in assay [2].
In the case of `O=C(Nc1ccc(C(F)(F)F)nc1)c1n[nH]c2ccc(-c3cccnc3)cc12` [compound 3, 5-(Pyridin-3-yl)-N-(6-(trifluoromethyl)pyridin-3-yl)-1H-indazole-3-carboxamide], the results for the EC50 in assay [1] and in assay [2] were 0.2 µM and greater than 100 µM, respectively.
On to `O=C(Nc1cccnc1)c1n[nH]c2ccc(-c3cccnc3)cc12` [compound 4, N,5-di(pyridin-3-yl)-1H-indazole-3-carboxamide], for which the figures for the EC50 in assay [1] and in assay [2] were 0.16 µM and 4.55 µM, respectively.
The matching figures for `O=C(Nc1cccc(-c2cccc(F)c2)c1)c1n[nH]c2ccc(-c3cccnc3)cc12` [compound 5, N-(3′-Fluorobiphenyl-3-yl)-5-(pyridin-3-yl)-1H-indazole-3-carboxamide]: no less than 10 µM and greater than 100 µM.
Turning to `CN(C)Cc1cncc(NC(=O)c2n[nH]c3ccc(-c4cccnc4)cc23)c1` [compound 7, N-(5-((Dimethylamino)methyl)pyridin-3-yl)-5-(pyridin-3-yl)-1H-indazole-3-carboxamide], the concentration for a half-maximal effect (EC50) in assay [1] was determined as 0.11 µM; in assay [2], 6.94 µM.
On to `O=C(Nc1ccc(CN2CCCC2)nc1)c1n[nH]c2ccc(-c3cccnc3)cc12` [compound 8, 5-(Pyridin-3-yl)-N-(6-(pyrrolidin-1-ylmethyl)pyridin-3-yl)-1H-indazole-3-carboxamide], for which the half-maximal effective concentration (EC50) was determined as 0.13 µM in assay [1] and 4.98 µM in assay [2].
`O=C(Nc1cncc(-c2cccc(F)c2)c1)c1n[nH]c2ccc(-c3cccnc3)cc12` [compound 9, N-(5-(3-Fluorophenyl)pyridin-3-yl)-5-(pyridin-3-yl)-1H-indazole-3-carboxamide]: the results for the EC50 in assay [1] and in assay [2] were no less than 10 µM and greater than 100 µM, respectively.
On to `CN1CCN(c2ncccc2NC(=O)c2n[nH]c3ccc(-c4cccnc4)cc23)CC1` [compound 11, N-(2-(4-Methylpiperazin-1-yl)pyridin-3-yl)-5-(pyridin-3-yl)-1H-indazole-3-carboxamide], for which the figures for the EC50 in assay [1] and in assay [2] were no less than 10 µM and greater than 100 µM, respectively.
As for `CN1CCN(c2ccc(NC(=O)c3n[nH]c4ccc(-c5cccnc5)cc34)cn2)CC1` [compound 12, N-(6-(4-Methylpiperazin-1-yl)pyridin-3-yl)-5-(pyridin-3-yl)-1H-indazole-3-carboxamide], the concentration giving a half-maximal response (EC50) was 0.063 µM in assay [1] and 5 µM in assay [2].
In the case of `O=C(Nc1cccnc1)c1n[nH]c2ccc(-c3cncc(F)c3)cc12` [compound 13, 5-(5-fluoropyridin-3-yl)-N-(pyridin-3-yl)-1H-indazole-3-carboxamide], the EC50 in assay [1] was 1.25 µM; in assay [2] it was greater than 100 µM.
For `O=C(Nc1ccnnc1)c1n[nH]c2ccc(-c3cccnc3)cc12` [compound 14, N-(Pyridazin-4-yl)-5-(pyridin-3-yl)-1H-indazole-3-carboxamide], the EC50 amounted to 0.106 µM in assay [1] and 50.4 µM in assay [2].
As to `CN1CCN(Cc2ccc(NC(=O)c3n[nH]c4ccc(-c5cccnc5)cc34)cn2)CC1` [compound 15, N-(6-((4-Methylpiperazin-1-yl)methyl)pyridin-3-yl)-5-(pyridin-3-yl)-1H-indazole-3-carboxamide], the 50% effective concentration (EC50) was found to be 0.037 µM in assay [1] and 4.8 µM in assay [2].
Consider `O=C(Nc1cccnc1)c1n[nH]c2ccc(-c3cncc(C(F)(F)F)c3)cc12` [compound 16, N-(pyridin-3-yl)-5-(5-(trifluoromethyl)pyridin-yl)-1H-indazole-3-carboxamide], for which the EC50 in assay [1] was no less than 10 µM; in assay [2], 35.8 µM.
The matching figures for `O=C(Nc1ccc(Oc2ccccc2F)nc1)c1n[nH]c2ccc(-c3cccnc3)cc12` [compound 18, N-(6-(2-fluorophenoxy)pyridin-3-yl)-5-(pyridin-3-yl)-1H-indazole-3-carboxamide]: 0.122 µM and 5.38 µM.
For the compound `O=C(Nc1ccc(Oc2cccc(F)c2)nc1)c1n[nH]c2ccc(-c3cccnc3)cc12` [compound 19, N-(6-(3-Fluorophenoxy)pyridin-3-yl)-5-(pyridin-3-yl)-1H-indazole-3-carboxamide], the EC50 in assay [1] was 0.107 µM; in assay [2], greater than 100 µM.
`O=C(Nc1ccc(Oc2ccc(F)cc2)nc1)c1n[nH]c2ccc(-c3cccnc3)cc12` [compound 20, N-(6-(4-Fluorophenoxy)pyridin-3-yl)-5-(pyridin-3-yl)-1H-indazole-3-carboxamide]: the EC50 in assay [1] amounted to 0.118 µM; in assay [2], 12 µM.
`O=C(Nc1cncc(F)c1)c1n[nH]c2ccc(-c3cccnc3)cc12` [compound 23, N-(5-Fluoropyridin-3-yl)-5-(pyridin-3-yl)-1H-indazole-3-carboxamide]: the 50% effective concentration (EC50) in assay [1] was 0.12 µM; in assay [2] it was greater than 100 µM.
Turning to `CN(C)Cc1cncc(-c2ccc3[nH]nc(C(=O)Nc4ccc(C(F)(F)F)nc4)c3c2)c1` [compound 26, 5-(5-((Dimethylamino)methyl)pyridin-3-yl)-N-(6-(trifluoromethyl)pyridin-3-yl)-1H-indazole-3-carboxamide], the EC50 was 0.21 µM in assay [1] and greater than 100 µM in assay [2].
For the compound `O=C(Nc1cccnc1)c1n[nH]c2ccc(-c3cncc(NC(=O)N4CCOCC4)c3)cc12` [compound 32, N-(5-(3-(Pyridin-3-ylcarbamoyl)-1H-indazol-5-yl)pyridin-3-yl) morpholine-4-carboxamide], the EC50 in assay [1] was 1.25 µM; in assay [2], greater than 100 µM.
Regarding `CN(C)Cc1cncc(-c2ccc3[nH]nc(C(=O)Nc4ccc(Oc5ccccc5F)nc4)c3c2)c1` [compound 36, 5-(5-((Dimethylamino)methyl)pyridin-3-yl)-N-(6-(2-fluorophenoxy)pyridin-3-yl)-1H-indazole-3-carboxamide], the EC50 in assay [1] was 0.275 µM; in assay [2], greater than 100 µM.
In the case of `Cn1nc(NC(=O)c2n[nH]c3ccc(-c4cccnc4)cc23)cc1C(F)(F)F` [compound 37, N-(1-Methyl-5-(trifluoromethyl)-1H-pyrazol-3-yl)-5-(pyridin-3-yl)-1H-indazole-3-carboxamide], the EC50 in assay [1] is 1.12 µM; in assay [2] it was greater than 100 µM.
Regarding `CN1CCN(c2ccc(NC(=O)c3n[nH]c4ccc(-c5cncc(NC(=O)C6CC6)c5)cc34)cn2)CC1` [compound 38, 5-(5-(Cyclopropanecarboxamido)pyridin-3-yl)-N-(6-(4-methylpiperazin-1-yl)pyridin-3-yl)-1H-indazole-3-carboxamide], the EC50 in assay [1] came out at 0.12 µM; in assay [2], 2.84 µM.
`O=C(Nc1ccc(C(F)(F)F)nc1)c1n[nH]c2ccc(-c3cncc(NC(=O)C4CC4)c3)cc12` [compound 39, 5-(5-(Cyclopropanecarboxamido)pyridin-3-yl)-N-(6-(trifluoromethyl)pyridin-3-yl)-1H-indazole-3-carboxamide]: the values for the EC50 in assay [1] and in assay [2] were 0.065 µM and greater than 100 µM, respectively.
The matching figures for `CN(C)Cc1cncc(-c2ccc3[nH]nc(C(=O)Nc4cccnc4)c3c2)c1` [compound 40, 5-(5-((Dimethylamino)methyl)pyridin-3-yl)-N-(pyridin-3-yl)-1H-indazole-3-carboxamide]: 0.065 µM and 5.17 µM.
With `O=C(Nc1cccnc1)c1n[nH]c2ccc(-c3cncc(NC(=O)C4CC4)c3)cc12` [compound 41, 5-(5-(Cyclopropanecarboxamido)pyridin-3-yl)-N-(pyridin-3-yl)-1H-indazole-3-carboxamide], the concentration giving a half-maximal response (EC50) in assay [1] is 0.067 µM; in assay [2] it was 8.12 µM.
For `O=C(Nc1cccnc1)c1n[nH]c2ccc(-c3cncc(CN4CCCC4)c3)cc12` [compound 43, N-(Pyridin-3-yl)-5-(5-(pyrrolidin-1-ylmethyl)pyridin-3-yl)-1H-indazole-3-carboxamide], the EC50 was 0.063 µM in assay [1] and 5.02 µM in assay [2].
With `CCOc1ccc(NC(=O)c2n[nH]c3ccc(-c4cncc(CN5CCCC5)c4)cc23)cn1` [compound 44, N-(6-Ethoxypyridin-3-yl)-5-(5-(pyrrolidin-1-ylmethyl)pyridin-3-yl)-1H-indazole-3-carboxamide], the EC50 in assay [1] was found to be 0.158 µM; in assay [2], 25.1 µM.
